Tests used:
[1] = test system: HbF and HbS protein in SCD erythroid progenitors; test: Western blot for HbF and HbS protein in sickle erythroid progenitors; type: cell-based, human
[2] = test system: acetylated histone H3 (acH3); test: Western blot for nuclear acetylated histone H3 in sickle erythroid progenitors; type: cell-based, human
[3] = test system: HbF in SCD erythroid progenitors; test: Flow cytometry for F-cells and HbF MFI in sickle erythroid progenitors; type: cell-based, human; settings: for mean F-cells: vehicle 5.8%
Class I HDAC (HDAC 1-3) = test: In vitro HDAC inhibition assay; type: biochemical
[4] = test system: Class IIa and Class IV HDAC isoforms; test: In vitro HDAC inhibition assay; type: biochemical; settings: 10-dose IC50 mode
[5] = test system: acH3 and RNA PolII at γ-globin promoter, β-globin promoter, LCR-HS2; type: cell-based, human; settings: for RNA PolII and acH3 chromatin enrichment in the LCR-HS2: Fig. 5E
K562 cells = test: Cell growth/proliferation of K562 cells; type: cell-based, human; settings: over the concentration range tested
[6] = test system: γ-globin mRNA in K562 cells; test: γ-globin mRNA induction in K562 cells; type: cell-based, human; settings: 48 h, CT108 3 μM, CT-101 5 μM, ST-20 20 μM, valproic acid 1 mM and 2 mM, vs control
[7] = test system: γ-globin and β-globin mRNA in SCD erythroid progenitors; test: Globin mRNA in sickle erythroid progenitors; type: cell-based, human; settings: for increase in γ-globin mRNA: day 7 to day 12, n = 6 SCD subjects, vs vehicle
HDAC6 = target: T1, HDAC6 (Homo sapiens, UniProt Q9UBN7); test: In vitro HDAC inhibition assay; type: biochemical; settings: 10-dose IC50 mode
T1 sequence (Q9UBN7 1-1215): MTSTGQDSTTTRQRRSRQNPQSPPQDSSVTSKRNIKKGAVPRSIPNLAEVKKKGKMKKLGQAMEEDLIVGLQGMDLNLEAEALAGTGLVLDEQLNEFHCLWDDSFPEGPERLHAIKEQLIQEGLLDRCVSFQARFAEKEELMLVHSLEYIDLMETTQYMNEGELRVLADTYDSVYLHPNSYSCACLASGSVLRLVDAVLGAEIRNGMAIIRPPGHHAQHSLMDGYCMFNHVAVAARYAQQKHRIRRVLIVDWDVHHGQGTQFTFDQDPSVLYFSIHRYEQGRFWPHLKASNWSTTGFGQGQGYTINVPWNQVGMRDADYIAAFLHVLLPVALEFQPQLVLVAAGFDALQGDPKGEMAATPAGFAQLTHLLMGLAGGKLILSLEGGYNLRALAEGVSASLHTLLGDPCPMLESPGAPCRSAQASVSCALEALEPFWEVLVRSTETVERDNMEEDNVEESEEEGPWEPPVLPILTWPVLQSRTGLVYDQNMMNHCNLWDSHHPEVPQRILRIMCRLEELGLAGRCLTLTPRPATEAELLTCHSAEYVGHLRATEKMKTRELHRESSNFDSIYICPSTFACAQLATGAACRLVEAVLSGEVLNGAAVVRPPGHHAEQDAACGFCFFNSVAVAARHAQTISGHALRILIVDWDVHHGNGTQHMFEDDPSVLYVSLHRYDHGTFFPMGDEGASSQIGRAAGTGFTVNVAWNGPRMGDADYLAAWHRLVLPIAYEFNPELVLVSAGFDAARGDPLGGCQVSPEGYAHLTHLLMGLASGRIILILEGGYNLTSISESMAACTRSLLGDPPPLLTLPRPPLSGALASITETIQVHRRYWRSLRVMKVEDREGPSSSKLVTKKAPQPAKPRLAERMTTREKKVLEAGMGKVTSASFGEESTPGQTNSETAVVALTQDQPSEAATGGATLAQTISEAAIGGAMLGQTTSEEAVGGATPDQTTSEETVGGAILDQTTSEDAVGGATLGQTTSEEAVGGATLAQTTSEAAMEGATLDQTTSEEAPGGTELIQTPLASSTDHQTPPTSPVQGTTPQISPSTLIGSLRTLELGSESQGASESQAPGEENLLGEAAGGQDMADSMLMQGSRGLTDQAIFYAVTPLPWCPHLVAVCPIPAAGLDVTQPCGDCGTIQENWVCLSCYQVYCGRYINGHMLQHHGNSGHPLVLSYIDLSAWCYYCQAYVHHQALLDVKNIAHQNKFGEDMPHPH

[8] = test system: SCD erythroid progenitors; test: Erythroid maturation and growth of sickle erythroid progenitors; type: cell-based, human; settings: 5 days of treatment (day 12)
HDACs 1-9, and 11 = test: In vitro HDAC inhibition assay, profile over all isoforms tested; settings: heat map Fig. 1A
HbF [9] = settings: SCD patients, intravenous; cited from earlier work
[10] = nine SCD subjects, 10 mg per day, 3 days per week; ref NCT01245179; cited from earlier work
HbF [11] = settings: three patients with Hodgkin's lymphoma, 3 months of therapy; cited from earlier work

For `CCCCCCCC(=O)SCC/C=C/[C@@H]1CC(=O)NCc2nc(cs2)C2=N[C@@](C)(CS2)C(=O)N[C@@H](C(C)C)C(=O)N1` [CT-101], the “HbF level increase by Western blot” value ([1]; 200 nM, vs untreated control progenitors, p < 0.01) was “up to 1.7 fold”, the HbS protein level ([1]; Western blot, Fig. 3C) was “not significantly changed” and the “increase in acH3 level” value ([2]; 100 nM, n = 6) was 1.8 fold. For the same compound, the “increase in acH3 level” value ([2]; 200 nM, n = 6) was 2.0 fold, the “mean F-cells” value ([3]; 100 nM, p < 0.01) was 8.1% and the “mean F-cells” value ([3]; 200 nM, p < 0.001) was 7.4%. For the same compound, the “mean increase in the proportion of F-cells” value ([3]; vs DMSO vehicle controls, same subject) was 30%, the IC50 (Class I HDAC (HDAC 1-3); read-out: IC50 as Class I HDACi, lowest level over Class I isoforms) was at least 4 nM and the “IC50 for HDAC 1-3” value (Class I HDAC (HDAC 1-3); singlet 10-dose IC50 mode, 3-fold serial dilution, active free thiol form tested) was “nanomolar concentrations”. For the same compound, the “inhibition of Class IIa and Class IV isoforms” value [4] was “little to no inhibition”, the “acH3 chromatin enrichment in the γ-globin promoter” value ([5]; CT-101 100 mM and 200 nM, 48 h) was 3.8 fold and the “RNA PolII and acH3 chromatin enrichment in the LCR-HS2” value [5] was “increased”. For the same compound, the “RNA PolII and acH3 chromatin enrichment in the β^s-globin proximal promoter” value ([5]; vs vehicle treated cells) was “not changed”, the cell proliferation (K562 cells) was “did not inhibit cell proliferation” and the “γ-globin mRNA / HbF expression induction” value [6] was 11 fold. For the same compound, the “increase in γ-globin mRNA” value ([7]; 100 nM) was 3.9 fold, the “increase in γ-globin mRNA” value ([7]; 200 nM) was 7 fold and the β-globin transcription ([7]; sickle erythroid progenitors) was “did not alter”. The “inhibition of HDAC6” value (HDAC6) was “Some inhibition”, the “decrease in number of orthochromatic erythroid cells” value ([8]; 100 nM) was 42% and the “decrease in number of orthochromatic erythroid cells” value ([8]; 200 nM) was 56%.

For `O=C(/C=C/c1cccc(S(=O)(=O)Nc2ccccc2)c1)NO` [belinostat], the “HDAC isoform inhibition profile / selectivity” value (HDACs 1-9, and 11) was “inhibited most HDAC isoforms to some degree”.

For `NC(=O)NO` [HU, hydroxyurea, reference compound], the “HbF level increase by Western blot” value ([1]; HU 75 μM, vs untreated control) was 1.3 fold.

For `CCCC(=O)O.CCCC(=O)O.CCCC(=O)O.CCCC(=O)O.N=C(N)NCCC[C@H](N)C(=O)O.N=C(N)NCCC[C@H](N)C(=O)O.N=C(N)NCCC[C@H](N)C(=O)O` [arginine butyrate], the “enhancement of HbF levels” value (HbF [9]) is given as 3 fold.

In the case of `Cc1[nH]c2ccccc2c1CCNCc1ccc(/C=C/C(=O)NO)cc1` [panobinostat], the “HDAC isoform inhibition profile / selectivity” value (HDACs 1-9, and 11) is given as “inhibited most HDAC isoforms to some degree”, the tolerability [10] is given as “without dose limiting or serious adverse effects” and the “increase in HbF” value (HbF [11]) is given as 2 fold.

For `CCCC(=O)[O-].[Na+]` [sodium butyrate, reference compound], the “HbF level increase by Western blot” value ([1]; sodium butyrate 0.2 μM, vs untreated control) was 1.4 fold, the “increase in acH3 level” value ([2]; sodium butyrate) was 3 fold and the “RNA PolII and acH3 chromatin enrichment in the LCR-HS2” value [5] was “increased”. For the same compound, the “decrease of β-globin mRNA level” value ([7]; sodium butyrate 0.2 μM, day 7 to day 12) was 80%.
